Test results reported in patent US11566062B2, “Methods for modulating protein mannosylation profiles using maduramycin, narasin, or salinomycin” (ARES TRADING S.A., priority 2017, dated 2023).
Entries after “also recorded” stand apart in the source; their conditions may differ.

What was measured:
Format in all cases: cell-based, Chinese hamster
[1] = system: mAb1 cells; assay: Viable cell density and viability (ViCell) of mAb1 cells, fed-batch Ambr15; conditions: 5 and 10 nM added at the start of the culture
Procedure: (§1) Cells expressing mAb1 and mAb2 were inoculated at 0.2×10^6 cells per millilitre (mL).
(§2) All assays were performed in fed-batch culture. A serum-free chemically defined culture medium was used. It was used as it is, or it was supplemented with polyether ionophore compounds (maduramycin, narasin, salinomycin and lasalocid were all purchased from Sigma-Aldrich) at the desired concentrations. The culture medium was fed, on a regular basis, with a chemically defined feed medium, as well as with glucose in order to keep said glucose level in the range of >0 to about 8 g/L (feeds were done at days 3, 5, 7, 10 and additional glucose feed at day 12).
(§3) For examples 2 and 3, cultures were performed in Ambr®15 with a working volume of 14 mL (36.5° C., Dissolved Oxygen 40%, 0.1 ml/min N2, pH range: 6.75-7.15, 800 rpm). A temperature shift was performed at day 6 for the cells expressing mAb1. Further conditions are mentioned in Table 2.
(§4) Each of the fed-batch culture lasted 14 days.
(§5) Viable cell density and viability were measured with the ViCell® (Beckmann Coulter). Antibody titers were measured with PA-HPLC.
(§6) The cells were cultivated and the results analysed as disclosed in the material and method section.

[2] = system: mAb1 cells; assay: Antibody titre (PA-HPLC) of mAb1 cells, fed-batch Ambr15; conditions: 5 and 10 nM added at the start of the culture
Procedure: as §1, §2, §3, §4, §5, §6

[3] = system: mannosylation level of mAb1; assay: Glycosylation (mannosylation) profile of mAb1 by 2AB-UPLC; design: level of ManS species / level of Man6 species (M6) / level of Man7 species / level of Man8 species / level of Man9 species: dose or concentration left out as unconfirmed; conditions: for level of Man6 species (M6) / level of Man7 species / level of Man8 species / level of Man9 species / level of ManS species: day 12, added at the start of the culture; for total mannosylation: 10 nM added at the start
Procedure: as §2, §3
(§7) Glycosylation profiles were established either by Ultra Performance Liquid Chromatography-2-amino-benzamide labelling technique (2AB-UPLC; mAb1) or by mass spectroscopy (MS; mAB2). Groups of glycans were defined in Table 1.
as §6

[4] = system: mannosylation level of mAb2; assay: Glycosylation (mannosylation) profile of mAb2 by mass spectroscopy; conditions: for impact on afucoslyated glycoforms: data non shown; for level of Man5 species / level of Man6 species (M6) / level of Man7 species: day 10, 10 nM added at the start of the culture; for level of fucosylated glycoforms: not shown; for total mannosylation: 10 nM added at the start
Procedure: as §2, §3, §7, §6

[5] = system: mAb1 cells; assay: Toxicity of the polyether ionophores: viable cell density (ViCell) in fed-batch SpinTubes culture; conditions: all concentrations tested (100, 250, 500 and 1000 nM; as low as 100 nM), vs control
Procedure: as §1, §2
For example 1, cultures were performed in SpinTubes® with a working volume of 30 mL. They were incubated at 36.5° C., 5% de CO2, 80% humidity and shaken at 320 rpm. Salinomycin, narasin and maduramycin were tested at 100, 250, 500 and 1000 nM.
as §4, §5
The cells were cultivated and the results analysed as disclosed in the material and method section. It is noted that the controls (or control conditions) according to the present invention correspond to cells grown without any polyether ionophores.

[6] = system: mAb2 cells; assay: Viable cell density (ViCell) of mAb2 cells, fed-batch Ambr15
Procedure: as §1, §2, §3, §4, §5, §6

[7] = system: mAb2 cells; assay: Titre (PA-HPLC) of mAb2 cells, fed-batch Ambr15
Procedure: as §1, §2, §3, §4, §5, §6

[8] = 10 nM added at the start of the culture

Compound	cell growth (VCD) at the end of culture compared to the control [1] [%]	protein titre at the end of culture compared to the control [2] [%]	level of Man6 species (M6) [3]	level of Man7 species [3]	level of Man8 species [3]	level of Man9 species [3]	level of ManS species [3]	impact on afucoslyated glycoforms [4]	level of Man5 species [4]	level of Man6 species (M6) [4]	level of Man7 species [4]	level of fucosylated glycoforms [4]	VCD decreased by a factor [5]	further results
CC[C@@H](C(=O)[C@@H](C)[C@@H](O)[C@H](C)[C@@H]1O[C@@H]([C@@H](CC)C(=O)O)CC[C@@H]1C)[C@H]1O[C@]2(C=C[C@@H](O)[C@]3(CC[C@@](C)([C@H]4CC[C@](O)(CC)[C@H](C)O4)O3)O2)[C@H](C)C[C@@H]1C [salinomycin, Salinomycin]	−13	−15	about 3.2%	about 1.5%	about 0.3%	about 0.45%	about 27%	without deeply impacting afucoslyated glycoforms	about 15%	about 2.5%	about 0.65%	decreased	3	cell growth compared to the control at the end of culture [6, 8]: not more than 10%
CC[C@@H](C(=O)O)[C@@H]1O[C@@H]([C@@H](C)[C@H](O)[C@H](C)C(=O)[C@H](CC)[C@H]2O[C@]3(C=C[C@@H](O)[C@]4(CC[C@@](C)([C@H]5CC[C@](O)(CC)[C@H](C)O5)O4)O3)[C@H](C)C[C@@H]2C)[C@@H](C)C[C@@H]1C [narasin, Narasin]	−15	−15	about 6.5%	about 4.5%	about 3.5%	about 0.5%	about 32%	without deeply impacting afucoslyated glycoforms	about 16.5%	about 3%	about 1.0%	decreased	3	titre compared to the control ([7]; 5 nM added at the start of the culture): +10%; titre compared to the control [7, 8]: +15%; total mannosylation ([3]; after 12 days of culture): about 43%; total mannosylation ([3]; after 14 days of culture): 38.9%; total mannosylation ([4]; after 10 days of culture): about 12.0%; total mannosylation ([4]; after 12 days of culture): 18.0%; impact on cell growth ([6]; both concentrations (5 and 10 nM) added at the start of the culture): negative impact on cell growth
Lasalocid	–	–	–	–	–	–	–	–	–	–	–	–	–	effect on mannosylation ([3]; concentration not given): no effect on mannosylation; also recorded: no impact on mannosylation
